System: Ssα-fuc
Assay: enzyme kinetics, 4-nitrophenyl substrate hydrolysis
Assay type: biochemical, Saccharolobus solfataricus
Details: 65°C; KM printed as identical within error for Ssα-fuc and Ssα-fuc^B

SMILES: C[C@@H]1O[C@@H](Oc2ccc([N+](=O)[O-])cc2)[C@@H](O)[C@H](O)[C@@H]1O [4NP-Fuc, 4-nitrophenyl-α-L-fucoside]
- Km: 28.7 ± 5 µM

— publication PMC1616953 (Nucleic Acids Research, 2006)
